The values that follow come from patent publication US10322126B2, “Solid dispersions of low-water solubility actives” (Bend Research, Inc., priority 2013, dated 2019).

The conditions of series [1]: cited from earlier work.
Series [2] can be described thus: Microcentrifuge dissolution test (simulated gastric buffer, then FaSSIF). The format is physicochemical. The following applies: 37° C. The procedure: Dispersion 1 was evaluated in vitro using a microcentrifuge dissolution test using the following procedure. First, a sample of Dispersion 1 was placed in a microcentrifuge tube. A simulated gastric buffer (GB) solution consisting of 0.01 N HCl in water at 37° C. was added to each tube, so that the concentration if all of the active in the dispersion had dissolved would have been 2000 μg/mL. The tubes were vortexed for 1 minute. All work was performed in a temperature-controlled box at 37° C. After 9 minutes, the tubes were centrifuged at 13,000 rpm for 1 minute. A 50 μL centrifuged supernatant aliquot was removed from each tube and added to an HPLC vial containing 250 μL HPLC grade methanol. Following sample removal, the tubes were vortexed for 30 seconds. The tubes were allowed to sit undisturbed until the next sample, repeating the centrifuging/sampling/vortexing steps described above, to obtain a sample at 25 minutes following addition of the GB solution to the sample.
After 30 minutes in the GB solution, 0.8 mL of double strength (1 wt %) simulated intestinal fluid powder (SIF powder, available from Phares AG, Basel, Switzerland) in double strength phosphate buffer saline (0.166 M NaCl, 0.040 M Na2HPO4, and 0.093 M KH2PO4), adjusted to pH 6.5 was added to each tube. The tubes were vortexed for 1 minute. The testing solution composition was used to model fasted simulated intestinal fluid (FaSSIF). The FaSSIF powder contains bile salts (taurocholate) and phospholipids (lecithin) in a molar ratio of 4 to 1, along with buffers and osmotic adjusters. The concentration of active in each tube was 1000 μg/mL if all of the active had dissolved. After 3 minutes in the FaSSIF solution, the tubes were centrifuged at 13,000 rpm for 1 minute. A 50 μL centrifuged supernatant aliquot was removed, as previously described, and added to an HPLC vial containing 250 μL of methanol. The tube then was vortexed for 30 seconds, and left undisturbed until the next time point. The procedure was repeated to collect samples at 10, 20, 40, 90, and 180 minutes after addition of FaSSIF to the vials.
The dissolved concentrations of active were measured by HPLC. HPLC was performed using a Zorbax® SB-C18, 4.6×150 mm, 5 μm column at 30° C., and a mobile phase comprising 20 mM ammonium acetate/acetonitrile (43/57 vol/vol). The flow rate was 1.0 mL/min, 10 μL of each solution was injected, and the absorbance was measured at 332 nm.
Dispersion 2 was tested using the same procedures described above. Control 1 was tested using the same procedures described above.

Regarding `C#Cc1cccc(Nc2ncnc3cc(OCCOC)c(OCCOC)cc23)c1` [Erlotinib, N-(3-ethynylphenyl)-6,7-bis(2-methoxyethoxy) quinazolin-4-amine], in series [1], the “solubility in phosphate buffered saline (pH 6.5)” value was “about 1 μg/mL”. The “Dissolved Active Concentration” value was 1,847.8 μg/mL in series [2] (10 minutes, GB solution (0.01 N HCl), 2000 μg/mL if all dissolved); 1,818.5 μg/mL in series [2] (25 minutes, GB solution (0.01 N HCl), 2000 μg/mL if all dissolved); 58.0 µg/mL in series [2] (34 minutes (4 min after addition of FaSSIF, pH 6.5), 1000 μg/mL if all dissolved); 68.1 µg/mL in series [2] (40 minutes (10 min after addition of FaSSIF, pH 6.5), 1000 μg/mL if all dissolved); 51.4 µg/mL in series [2] (50 minutes (20 min after addition of FaSSIF, pH 6.5), 1000 μg/mL if all dissolved); 55.1 µg/mL in series [2] (70 minutes (40 min after addition of FaSSIF, pH 6.5), 1000 μg/mL if all dissolved). Besides, the “Dissolved Active Concentration” value in series [2] (120 minutes (90 min after addition of FaSSIF, pH 6.5), 1000 μg/mL if all dissolved) is 67.8 µg/mL; in series [2] (210 minutes (180 min after addition of FaSSIF, pH 6.5), 1000 μg/mL if all dissolved) it was 55.1 µg/mL.
